Experimental data: patent publication US4046878A, “Daunomycin analogues, their preparation and use” (Societa' Farmaceutici Italia S.p.A., priority 1974, dated 1977)
≈ marks a conversion by molar mass, not a printed value. Like-named read-outs stand apart in the source and are kept apart here.

Tests used:
[1] = system: HeLa cells; assay: Viability (colony formation) of HeLa cells in vitro; assay type: cell-based; conditions: for IC50: Homo sapiens, HeLa, colony numbers 6 days later
Procedure: In vitro studies were carried out on HeLa cells, maintained in Eagle medium supplemented with 10% calf serum. The cells were treated with daunomycin, adriamycin* and the Test Compound for different periods of times. The cell viability was assessed by […] of 200-300 cells/plate. Colony numbers were evaluated 6 days later.

[2] = system: solid tumors; assay: Solid tumors: tumor weight in mice grafted subcutaneously with fragments of neoplastic tissue; conditions: for Toxicity / % T/C (mean tumor weight) / Tumor Weight: five days; for Tumor Weight: control 3.036, in g (unit assumed); for therapeutic index (T.I.): Maximum Tolerated dose (LD 10)/Minimum effective dose (T/C 0.10)
Procedure: In vivo tests on the activity of the Test Compound as compared with adriamycin on solid tumors were carried out on groups of ten Swiss CD 1 mice subcutaneously grafted with fragments of neoplastic tissue and treated intravenously with the respective antibiotics for five days starting form the day following the tumor implantation.
On the tenth day, all the test animals were sacrificed and their tumors removed and weighed.
*The therapeutic index (T.I) is expressed as the ratio between the maximu
tolerated dose (LD10) and the minimum effective dose, according to
Skipper and Schmidt, Cancer Chemother, Rep. 17 : 1-128, 1962. The minimum
effective dose indicates the dose which reduces by 90% the weight of
tumors compared to controls : such 90% reduction correponds to a T/C valu
**% T/C = (mean tumor weight of treated mice/mean tumor weight of control

[3] = system: ascites sarcoma 180 cells; assay: Ascitic tumors: survival of mice inoculated intraperitoneally with ascites sarcoma 180 cells; assay type: in vivo, mice (Swiss CD 1); conditions: i.p.
Procedure: Tests were carried out on groups of 10 mice (Swiss CD 1) inoculated intraperitoneally with 1 × 10^6 ascites sarcoma 180 cells/animal. The animals were treated intraperitoneally with different concentrations of the Test Compound and adriamycin once a day following tumor implantation.
(§1) *% T/C = (mean survival time of treated mice/mean survival time of contro
**The figures in parentheses indicate the number of longterm survivors,
animals, one animal remained alive at the end of 60 days. (*) % T/C =

[4] = system: L 1210 leukemia cells; assay: Leukemia: survival of mice inoculated intraperitoneally with L 1210 leukemia cells; assay type: in vivo, BDF 1 mice; conditions: for Toxicity / % T/C (mean survival time) / Average Survival Time: once; for % T/C (mean survival time) / Average Survival Time: day after implantation; for Average Survival Time: control 8
Procedure: The activity of the Test Compound was tested on BDF 1 mice inoculated intraperitoneally with 1×10^5 L 1210 leukemia cells/animal.
The animals were treated once, the day after tumor implantation.
as §1

[5] = system: Moloney Sarcoma Virus (MSV); assay: Formation of foci by Moloney Sarcoma Virus in infected mouse embryo fibroblast cultures (antiviral activity); assay type: cell-based
Source text: In vitro test on the formation of foci by Moloney Sarcoma Virus (MSV).

[6] = system: mouse embryo fibroblast cultures; assay: Cell proliferation in uninfected mouse embryo fibroblast cultures (cytotoxic activity); conditions: 3 days
[7] = read-out: ID 50, 2 hrs. treatment
[8] = read-out: ID 50, 8 hrs. treatment
[9] = Fibroblast, 72 h, read-out: % Foci (control = 100)

COc1cccc2c1C(=O)c1c(O)c3c(c(O)c1C2=O)C[C@@](O)(C(C)=O)C[C@@H]3O[C@H]1C[C@H](N)[C@H](O)[C@H](C)O1 [Daunomycin]
IC50 [1, 7]: 0.095 µg/mL (≈ 0.18 µM)
IC50 [1, 8]: 0.023 µg/mL (≈ 0.0436 µM)

COc1cccc2c1C(=O)c1c(O)c3c(c(O)c1C2=O)C[C@@](O)(C(=O)CO)C[C@@H]3O[C@H]1C[C@H](N)[C@H](O)[C@H](C)O1 [Adriamycin, reference compound]
Toxicity ([2]; 2.5 mg/kg i.v.): 0/10
% T/C (mean tumor weight) ([2]; 2.5 mg/kg i.v., tenth day): 48%
Tumor Weight ([2]; 2.5 mg/kg i.v., tenth day): 1.465
Toxicity ([2]; 3.5 mg/kg i.v.): 7/10
% T/C (mean tumor weight) ([2]; 3.5 mg/kg i.v., tenth day): 12%
Tumor Weight ([2]; 3.5 mg/kg i.v., tenth day): 0.364
therapeutic index (T.I.) [2]: 1.8
% T/C, average survival time ([3]; Experiment 1, 1 mg/kg day): 146%
number of longterm survivors, i.e., after 60 days ([3]; Experiment 1, 1 mg/kg day): 1/9
% T/C, average survival time ([3]; Experiment 1, 2 mg/kg day): 400%
number of longterm survivors, i.e., after 60 days ([3]; Experiment 1, 2 mg/kg day): 5/10
% T/C, average survival time ([3]; Experiment 1, 5 mg/kg day): 311%
number of longterm survivors, i.e., after 60 days ([3]; Experiment 1, 5 mg/kg day): 4/10
% T/C, average survival time ([3]; Experiment 2, 0.2 mg/kg day): 107%
number of longterm survivors, i.e., after 60 days ([3]; Experiment 2, 0.2 mg/kg day): 0/10
% T/C, average survival time ([3]; Experiment 2, 1 mg/kg day): 143%
number of longterm survivors, i.e., after 60 days ([3]; Experiment 2, 1 mg/kg day): 1/10
% T/C, average survival time ([3]; Experiment 2, 5 mg/kg day): 225%
number of longterm survivors, i.e., after 60 days ([3]; Experiment 2, 5 mg/kg day): 1/10
% T/C, average survival time ([3]; Experiment 2, 10 mg/kg day): 193%
number of longterm survivors, i.e., after 60 days ([3]; Experiment 2, 10 mg/kg day): 0/10
% T/C, average survival time ([3]; Experiment 3, 0.1 mg/kg day): 100%
number of longterm survivors, i.e., after 60 days ([3]; Experiment 3, 0.1 mg/kg day): 0/10
% T/C, average survival time ([3]; Experiment 3, 1 mg/kg day): 169%
number of longterm survivors, i.e., after 60 days ([3]; Experiment 3, 1 mg/kg day): 1/9
Toxicity ([4]; 2.5 mg/kg): 0/10
% T/C (mean survival time) ([4]; 2.5 mg/kg): 156%
Average Survival Time ([4]; 2.5 mg/kg): 12.5
Toxicity ([4]; 5 mg/kg): 0/10
% T/C (mean survival time) ([4]; 5 mg/kg): 175%
Average Survival Time ([4]; 5 mg/kg): 14
Toxicity ([4]; 10 mg/kg): 4/10
% T/C (mean survival time) ([4]; 10 mg/kg): 200%
Average Survival Time ([4]; 10 mg/kg): 16
IC50 [1, 7]: 0.2 µg/mL (≈ 0.368 µM)
IC50 [1, 8]: 0.039 µg/mL (≈ 0.0718 µM)
activity at 0.006 µg/mL [5, 9]: 26%
activity at 0.0125 µg/mL [5, 9]: 0%
activity at 0.025 µg/mL [5, 9]: 0%

CC(=O)C1(O)Cc2c(O)c3c(c(O)c2C(O[C@H]2C[C@H](N)[C@H](O)[C@H](C)O2)C1)C(=O)c1ccccc1C3=O (mixture of isomers) [Test Compound, mixture of the α-anomers of (-)daunosaminyl(-)4-demethoxydaunomycinone and (-(daunosaminyl(+)4-demethoxydaunomycinone]
Toxicity ([2]; 0.5 mg/kg i.v.): 0/10
% T/C (mean tumor weight) ([2]; 0.5 mg/kg i.v., tenth day): 76%
Tumor Weight ([2]; 0.5 mg/kg i.v., tenth day): 2.295
Toxicity ([2]; 1 mg/kg i.v.): 0/10
% T/C (mean tumor weight) ([2]; 1 mg/kg i.v., tenth day): 51%
Tumor Weight ([2]; 1 mg/kg i.v., tenth day): 1.550
inhibition of the tumor growth ([2]; 1 mg/kg i.v., higher non toxic dose tested, tenth day): 50%
Toxicity ([2]; 2 mg/kg i.v.): 3/10
% T/C (mean tumor weight) ([2]; 2 mg/kg i.v., tenth day): 16%
Tumor Weight ([2]; 2 mg/kg i.v., tenth day): 0.485
therapeutic index (T.I.) [2]: 3.7
cytotoxic activity, in words [6]: the same cytotoxic activity as adriamycin
% T/C, average survival time ([3]; Experiment 1, 1 mg/kg day): 185%
number of longterm survivors, i.e., after 60 days ([3]; Experiment 1, 1 mg/kg day): 0/10
% T/C, average survival time ([3]; Experiment 1, 2 mg/kg day): 61%
number of longterm survivors, i.e., after 60 days ([3]; Experiment 1, 2 mg/kg day): 1/10
% T/C, average survival time ([3]; Experiment 1, 5 mg/kg day): 38%
number of longterm survivors, i.e., after 60 days ([3]; Experiment 1, 5 mg/kg day): 0/10
% T/C, average survival time ([3]; Experiment 2, 0.2 mg/kg day): 146%
number of longterm survivors, i.e., after 60 days ([3]; Experiment 2, 0.2 mg/kg day): 0/10
% T/C, average survival time ([3]; Experiment 2, 1 mg/kg day): 107%
number of longterm survivors, i.e., after 60 days ([3]; Experiment 2, 1 mg/kg day): 0/10
% T/C, average survival time ([3]; Experiment 2, 1.5 mg/kg day): 79%
number of longterm survivors, i.e., after 60 days ([3]; Experiment 2, 1.5 mg/kg day): 0/10
% T/C, average survival time ([3]; Experiment 3, 0.12 mg/kg day): 115%
number of longterm survivors, i.e., after 60 days ([3]; Experiment 3, 0.12 mg/kg day): 0/10
% T/C, average survival time ([3]; Experiment 3, 0.25 mg/kg day): 188%
number of longterm survivors, i.e., after 60 days ([3]; Experiment 3, 0.25 mg/kg day): 1/10
% T/C, average survival time ([3]; Experiment 3, 0.5 mg/kg day): 181%
number of longterm survivors, i.e., after 60 days ([3]; Experiment 3, 0.5 mg/kg day): 0/10
% T/C, average survival time ([3]; Experiment 3, 1 mg/kg day): 223%
number of longterm survivors, i.e., after 60 days ([3]; Experiment 3, 1 mg/kg day): 1/10
active dose relative to adriamycin, in words ([3]; once a day): active at lower doses than adriamycin
effect on ascitic tumor growth, in words ([3]; once a day): remarkable effect on ascitic tumor growth
Toxicity ([4]; 0.75 mg/kg): 0/10
% T/C (mean survival time) ([4]; 0.75 mg/kg): 156%
Average Survival Time ([4]; 0.75 mg/kg): 12.5
Toxicity ([4]; 1.5 mg/kg): 1/10
% T/C (mean survival time) ([4]; 1.5 mg/kg): 162%
Average Survival Time ([4]; 1.5 mg/kg): 13
Toxicity ([4]; 3 mg/kg): 7/10
% T/C (mean survival time) ([4]; 3 mg/kg): 87%
Average Survival Time ([4]; 3 mg/kg): 7
average survival time of treated animals, in words ([4]; non toxic doses tested): increased considerably
active dose relative to adriamycin, in words ([4]; single treatment): active at lower doses than adriamycin
activity on HeLa cell viability, in words ([1]; 2 hours of treatment): as active as adriamycin
inhibition of cell viability, in words ([1]; 8 hours of treatment): higher than the inhibition by either adriamycin or daunomycin
IC50 ([1]; 2 hrs. treatment, read-out: ID 50 (the source's name)): 0.2 µg/mL
IC50 ([1]; 8 hrs. treatment, read-out: ID 50 (the source's name)): 0.002 µg/mL
antiviral activity (MSV foci formation), in words ([5]; 3 days): lesser antiviral activity than adriamycin
activity at 0.006 µg/mL ([5]; Fibroblast, 72 h, 0.006 γ/ml, 3 days, read-out: % Foci (control = 100)): 54%
activity at 0.025 µg/mL ([5]; Fibroblast, 72 h, 0.0250 γ/ml, 3 days, read-out: % Foci (control = 100)): 12%
activity at 0.1 µg/mL ([5]; Fibroblast, 72 h, 0.1 γ/ml, 3 days, read-out: % Foci (control = 100)): 0%
activity at 0.6 µg/mL ([5]; Fibroblast, 72 h, 0.6 γ/ml, 3 days, read-out: % Foci (control = 100)): 0%
